{
  "source": "patent US9604923B2",
  "about": "(H. LEE MOFFITT CANCER CENTER AND RESEARCH INSTITUTE, INC., priority 2006, dated 2017)",
  "key": {"[1]": {"test_system": "human breast (MDA-MB-231) tumor", "experiment": "Human breast tumor xenografts in athymic nude mice", "type": "in vivo, mouse"}, "NIH3T3/v-Src [2]": {"test_system": "NIH3T3/v-Src", "experiment": "Apoptosis by Annexin V binding and Flow Cytometry", "type": "cell-based, mouse", "procedure": ". In FIG. 4B, human breast carcinoma MDA-MB-231 cells were transfected with pcDNA3 (mock), Stat3C or untransfected (Non), or the v-Src transformed mouse fibroblasts (NIH3T3/v-Src) were transfected with pcDNA3 (mock), N-terminus of Stat3 (ST3-NT) or the Stat3 SH2 domain (ST3-SH2) for […]. […]. Values are the mean and S.D. of six independent determinations. Western blot data are representative of 3 independent analyses.\n(§1) In some cases, cells were first transfected with Stat3C, ST3-NT, or ST3-SH2 domain or mock-transfected for 24 hours prior to treatment with compound for an additional 24-48 hours. Cells were then detached and analyzed by Annexin V binding (BD Biosciences, San Diego) according to the manufacturer's protocol and Flow Cytometry to quantify the percent apoptosis."}, "[3]": {"test_system": "pShc, pErk1/2, pSrc, pTyr profile in NIH3T3/v-Src or EGF-stimulated NIH3T3/hEGFR", "experiment": "Western blot for other signaling proteins", "type": "cell-based, mouse"}, "[4]": {"test_system": "constitutively-active Stat3 in MDA-MB-231, MDA-MB-435 and MDA-MB-468 cells", "settings": "100 μM; by 24 hours in text, 48 hours in FIG. 2E legend", "quoted_text": "(§6) To investigate non-specific effects, SDS-PAGE and Western blot analysis was performed on whole-cell lysates from mouse fibroblasts transformed by v-Src (NIH3T3/v-Src) or overexpressing the human EGFR (NIH3T3/hEGFR) and stimulated by EGF to determine the ability to inhibit other signaling proteins."}, "[5]": {"test_system": "constitutively-active Stat3 in NIH3T3/v-Src fibroblasts", "settings": "100 μM, by 24 hours", "quoted_text": "as §6"}, "MDA-MB-231": {"test_system": "MDA-MB-231", "experiment": "Apoptosis by Annexin V binding and Flow Cytometry", "type": "cell-based, human", "settings": "untransfected or mock-transfected cells; 100 μM", "procedure": "(§2) […]; Turkson, J. et al. Mol. Cell.\nas §1\n[…]. To this end, the breast carcinoma MDA-MB-231 cells that harbor activated Stat3 were transiently transfected with Stat3C and evaluated for apoptosis. […] […]. There is increased in the background level of cell death, which could be due to the effects of transfection. […]."}, "[6]": {"test_system": "pTyr705 Stat3 in NIH3T3/v-Src fibroblasts", "settings": "100 μM, 24-hour treatment"}, "[7]": {"biological_target": "FLAG-ST3:Stat3-YFP complex (Homo sapiens, UniProt P40763)", "sequence (P40763 whole entry, one chain of several)": "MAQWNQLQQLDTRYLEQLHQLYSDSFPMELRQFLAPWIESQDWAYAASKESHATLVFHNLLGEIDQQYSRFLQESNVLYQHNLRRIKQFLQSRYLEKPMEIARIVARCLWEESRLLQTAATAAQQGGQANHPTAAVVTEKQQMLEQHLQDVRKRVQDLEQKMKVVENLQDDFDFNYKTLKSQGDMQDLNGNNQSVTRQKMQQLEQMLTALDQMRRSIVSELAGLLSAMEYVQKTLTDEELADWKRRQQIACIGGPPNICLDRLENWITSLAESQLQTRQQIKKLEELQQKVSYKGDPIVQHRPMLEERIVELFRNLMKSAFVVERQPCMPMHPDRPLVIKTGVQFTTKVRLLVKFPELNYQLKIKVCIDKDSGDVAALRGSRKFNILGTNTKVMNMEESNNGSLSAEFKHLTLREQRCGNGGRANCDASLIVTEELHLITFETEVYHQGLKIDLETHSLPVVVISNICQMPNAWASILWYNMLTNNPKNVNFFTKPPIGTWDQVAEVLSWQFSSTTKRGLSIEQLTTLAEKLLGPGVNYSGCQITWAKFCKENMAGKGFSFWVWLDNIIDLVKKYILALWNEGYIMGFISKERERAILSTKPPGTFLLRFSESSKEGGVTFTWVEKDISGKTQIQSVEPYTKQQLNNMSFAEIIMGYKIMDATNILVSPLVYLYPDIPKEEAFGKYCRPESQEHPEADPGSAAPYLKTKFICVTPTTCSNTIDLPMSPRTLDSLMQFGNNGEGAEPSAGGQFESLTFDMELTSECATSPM", "settings": "NIH3T3/v-Src, 24 hours"}, "Stat3": {"biological_target": "Stat3 (Homo sapiens, UniProt P40763)", "sequence (P40763 2-770 limits assumed)": "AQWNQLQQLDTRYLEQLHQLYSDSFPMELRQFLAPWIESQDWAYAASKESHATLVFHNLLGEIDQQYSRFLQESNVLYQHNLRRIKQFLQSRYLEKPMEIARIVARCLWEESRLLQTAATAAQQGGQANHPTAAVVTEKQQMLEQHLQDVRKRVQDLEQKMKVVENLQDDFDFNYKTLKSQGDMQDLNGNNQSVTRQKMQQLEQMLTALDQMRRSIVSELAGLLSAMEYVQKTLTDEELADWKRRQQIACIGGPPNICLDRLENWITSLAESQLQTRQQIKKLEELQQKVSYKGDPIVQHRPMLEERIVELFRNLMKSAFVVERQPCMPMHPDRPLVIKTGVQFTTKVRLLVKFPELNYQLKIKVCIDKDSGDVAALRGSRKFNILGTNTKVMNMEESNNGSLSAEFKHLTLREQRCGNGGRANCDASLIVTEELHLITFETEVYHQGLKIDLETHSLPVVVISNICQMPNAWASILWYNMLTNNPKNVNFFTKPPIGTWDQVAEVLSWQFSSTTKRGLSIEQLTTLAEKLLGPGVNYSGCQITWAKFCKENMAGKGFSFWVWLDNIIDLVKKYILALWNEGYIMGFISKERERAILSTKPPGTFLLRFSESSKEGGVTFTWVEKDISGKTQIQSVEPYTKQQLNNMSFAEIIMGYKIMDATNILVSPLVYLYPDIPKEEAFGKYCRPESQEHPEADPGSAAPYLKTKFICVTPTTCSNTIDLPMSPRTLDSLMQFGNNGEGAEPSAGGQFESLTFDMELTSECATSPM", "settings": "10, 30, and 100 μM pre-incubation", "source_text": "Values are the mean and S.D. of eight tumor-bearing mice each."}, "MDA-MB-435": {"test_system": "MDA-MB-435", "experiment": "Apoptosis by Annexin V binding and Flow Cytometry", "type": "cell-based, human", "procedure": "as §1"}, "MDA-MB-453 [8]": {"test_system": "MDA-MB-453", "experiment": "Apoptosis by Annexin V binding and Flow Cytometry", "type": "cell-based, human", "settings": "100 μM or less, 48 hours", "procedure": "as §1"}, "[9]": {"test_system": "β-Casein promoter-driven Luc", "experiment": "Luciferase reporter assay, v-Src co-transfected NIH3T3", "type": "cell-based, mouse", "settings": "100 μM, 24 hours", "from_the_text": "as §2\n[…]. […] […]."}, "[10]": {"test_system": "Cyclin D1, Bcl-xL and Survivin in MDA-MB-231", "experiment": "Immunoblot of Stat3-regulated gene products", "type": "cell-based, human", "settings": "100, 48 hours"}, "Stat5:5": {"test_system": "Stat5:5", "experiment": "STATs DNA-binding activity in vitro, EMSA with MGFe probe", "parameters": "species or system mouse"}, "[11]": {"test_system": "Cyclin D1, Bcl-xL and Survivin in NIH3T3/v-Src", "experiment": "Immunoblot of Stat3-regulated gene products", "type": "cell-based, mouse", "settings": "100, 48 hours"}, "[12]": {"test_system": "Stat3-independent luciferase reporter pLucSRE", "settings": "100 μM, 24 hours"}, "NIH3T3/v-Src [13]": {"test_system": "NIH3T3/v-Src", "experiment": "Viable cell number by trypan blue exclusion", "type": "cell-based, mouse", "settings": "100 μM, four days", "from_the_text": "(§3) […]. Values are the mean and S.D. of 3-4 independent determinations.\n(§4) . The present inventors next determined whether this Stat3 activity inhibitor is able to inhibit the anchorage-dependent and -independent (transformation) growth of human and mouse cancer cell lines and whether this inhibition is dependent on the presence of persistently-active Stat3. […]. […]"}, "NIH3T3 [14]": {"test_system": "NIH3T3", "experiment": "Viable cell number by trypan blue exclusion", "type": "cell-based, mouse", "settings": "100 μM, four days", "from_the_text": "as §3, §4"}, "NIH3T3 [15]": {"test_system": "NIH3T3", "experiment": "Apoptosis by Annexin V binding and Flow Cytometry", "type": "cell-based, mouse", "procedure": "as §1"}, "MDA-MB-453 [16]": {"test_system": "MDA-MB-453", "experiment": "Viable cell number by trypan blue exclusion", "type": "cell-based, human", "settings": "100 μM, four days", "from_the_text": "as §3, §4"}, "[17]": {"test_system": "MDA-MB-231, MDA-MB-435 and MDA-MB-468", "experiment": "Viable cell number by trypan blue exclusion", "type": "cell-based, human", "settings": "100 μM, four days", "from_the_text": "as §3, §4"}, "[18]": {"test_system": "Stat3-dependent luciferase reporter pLucTKS3", "settings": "dose-dependent manner"}, "NIH3T3/v-Ras": {"test_system": "NIH3T3/v-Ras", "experiment": "Soft-agar colony formation assay", "type": "cell-based, mouse", "settings": "100 μM every 3 days", "procedure": "(§5) Briefly, each well contained 1.5 ml of 1% agarose in Dulbeco's modified Eagle's medium as the bottom layer and 1.5 ml of 0.5% agarose in Dulbeco's modified Eagle's medium containing 4000 or 6000 NIH3T3/v-Src or NIH3T3/v-Ras fibroblasts, respectively, as the top layer. […]. Colonies were quantified by staining with 20 μl of 1 mg/ml iodonitrotetrazolium violet, incubating at 37° C. overnight, and counting the next day."}, "NIH3T3/v-Src [19]": {"test_system": "NIH3T3/v-Src", "experiment": "Soft-agar colony formation assay", "type": "cell-based, mouse", "settings": "100 μM every 3 days", "procedure": "as §5"}},
  "data": [
    {"smiles": "Cc1ccc(S(=O)(=O)OCC(=O)Nc2ccc(C(=O)O)c(O)c2)cc1", "note": "[Compound S3I-201, 2-Hydroxy-4-(2-(tosyloxy)acetamido)benzoic acid]", "values": [
      {"measurement": "tumor growth compared to control (vehicle-treated) tumors", "setting": "[1]; 5 mg/kg i.v. every 2 or every 3 days for two weeks", "value": "strong growth inhibition"},
      {"measurement": "tumor growth upon termination of treatment", "setting": "[1]; data not shown", "value": "no resumption of tumor growth"},
      {"measurement": "total Stat3 protein in residual tumor tissue", "setting": "[1]; treated mice T1 and T2", "value": "remained unchanged"},
      {"measurement": "pTyr Stat3 (pYStat3) in residual tumor tissue", "setting": "[1]; treated mice T1 and T2 compared to control", "value": "minimal to no detection"},
      {"measurement": "Stat3 DNA binding activity in residual tumor tissue (EMSA)", "setting": "[1]; treated mice T1 and T2 compared to control tumor", "value": "strong inhibition"},
      {"measurement": "apoptosis", "setting": "NIH3T3/v-Src [2]; 30-100, 48 hours", "value": "significant apoptosis"},
      {"measurement": "apoptosis", "setting": "NIH3T3/v-Src [2]; cells overexpressing the ST3-NT region", "value": "strong induction of apoptosis"},
      {"measurement": "apoptosis", "setting": "NIH3T3/v-Src [2]; mock-transfected cells", "value": "strongly induced"},
      {"measurement": "apoptosis", "setting": "NIH3T3/v-Src [2]; overexpression of the Stat3-SH2 domain", "value": "diminished the apoptotic effects"},
      {"measurement": "phosphorylation of Shc (pShc), Erk1/2 (pErk1/2), or Src (pSrc)", "setting": "[3]; 100 μM, 24 hours", "value": "no significant effect"},
      {"measurement": "total Erk1/2 protein levels", "setting": "[3]; 24 hours", "value": "unchanged"},
      {"measurement": "pTyr profile, anti-pTyr antibody 4G10 clone", "setting": "[3]; NIH3T3/v-Src, 24-hour treatment", "value": "no significant changes"},
      {"measurement": "constitutive Stat3 activation", "setting": "[4]", "value": "significantly inhibited"},
      {"measurement": "constitutive Stat3 activation", "setting": "[5]", "value": "significantly inhibited"},
      {"measurement": "apoptosis", "setting": "MDA-MB-231", "value": "50-80%"},
      {"measurement": "pTyr705 Stat3 levels", "setting": "[6]", "value": "significantly diminished"},
      {"measurement": "total Stat3 protein level", "setting": "[6]", "value": "remained unchanged"},
      {"measurement": "FLAG-ST3 protein in the Stat3-YFP immunoprecipitates", "setting": "[7]", "value": "no detectable level"},
      {"measurement": "Stat3-YFP in the FLAG-ST3 immunoprecipitates", "setting": "[7]", "value": "significantly reduced"},
      {"measurement": "Stat3 activity in control tumor tissue lysates", "setting": "Stat3", "value": "dose-dependent abrogation"},
      {"measurement": "sensitivity to apoptosis induction", "setting": "MDA-MB-435; 30 μM", "value": "more sensitive"},
      {"measurement": "apoptosis", "setting": "MDA-MB-435; 30-100, 48 hours", "value": "significant apoptosis"},
      {"measurement": "sensitivity to apoptosis induction", "setting": "MDA-MB-453 [8]", "value": "less sensitive"},
      {"measurement": "v-Src-mediated induction of β-Casein promoter Luc", "setting": "[9]", "value": "not affected"},
      {"measurement": "expression of the Cyclin D1, Bcl-xL and Survivin proteins", "setting": "[10]", "value": "significant reduction in expression"},
      {"measurement": "preference for Stat3 over Stat5 (less potency for Stat5)", "setting": "Stat5:5; DNA-binding activity", "value": 2, "unit": "fold"},
      {"measurement": "IC50", "setting": "Stat5:5; Table 4, listed as 74859, read-out: IC50 values for the inhibition of STATs DNA-binding activity in vitro, Stat5:5", "value": 166, "unit": "µM"},
      {"measurement": "expression of the Cyclin D1, Bcl-xL and Survivin proteins", "setting": "[11]", "value": "significant reduction in expression"},
      {"measurement": "v-Src-mediated induction of pLucSRE", "setting": "[12]", "value": "not affected"},
      {"measurement": "viable cell numbers and growth", "setting": "NIH3T3/v-Src [13]", "value": "significantly reduced viable cell numbers and inhibited growth"},
      {"measurement": "growth and viability", "setting": "NIH3T3 [14]", "value": "not significantly altered"},
      {"measurement": "sensitivity to apoptosis induction", "setting": "NIH3T3 [15]; 100 μM or less, 48 hours", "value": "less sensitive"},
      {"measurement": "cytotoxicity", "setting": "NIH3T3 [15]; 300 μM or higher, independent of Stat3 activation status", "value": "general, non-specific cytotoxicity"},
      {"measurement": "growth and viability", "setting": "MDA-MB-453 [16]", "value": "not significantly altered"},
      {"measurement": "viable cell numbers and growth", "setting": "[17]", "value": "significantly reduced viable cell numbers and inhibited growth"},
      {"measurement": "v-Src-mediated pLucTKS3 induction", "setting": "[18]", "value": "significantly inhibited"},
      {"measurement": "soft-agar growth", "setting": "NIH3T3/v-Ras", "value": "unaffected"},
      {"measurement": "growth in soft-agar suspension", "setting": "NIH3T3/v-Src [19]", "value": "significantly inhibited"}
    ]}
  ]
}
